Source: the supplement of paper PMC10307832

How the values were obtained:
Assay in all cases: relative viability (nuclei count vs DMSO), 5 days (fraction); higher = more cells survive
IPA-3 + Alpelisib = compound: C1=CC=C2C(=C1)C=CC(=C2SSC3=C(C=CC4=CC=CC=C43)O)O [IPA-3] + Cc1nc(NC(=O)N2CCC[C@H]2C(N)=O)sc1-c1ccnc(C(C)(C)C(F)(F)F)c1 [Alpelisib] (partner 2 µM)
Summary of the method: (§1)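 Relative viability was taken as the ratio of nuclei in treated wells to nuclei in vehicle wells. Lung cancer cell lines in 1536-well plates received compounds by pin tool one day after seeding, either one drug alone or a fixed anchor-drug dose plus five library-drug doses (not always all listed) in √10 steps. Nuclei were counted on 4× images after 5 days of treatment, and values are medians of duplicate plates.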

Doramapimod + Tozasertib = compound: Cc1ccc(-n2nc(C(C)(C)C)cc2NC(=O)Nc2ccc(OCCN3CCOCC3)c3ccccc23)cc1 [Doramapimod] + Cc1cc(Nc2cc(N3CCN(C)CC3)nc(Sc3ccc(NC(=O)C4CC4)cc3)n2)n[nH]1 [Tozasertib] (partner 0.1 µM)
Summary of the method: as §1

RAF265 + Navitoclax = compound: Cn1c(Nc2ccc(C(F)(F)F)cc2)nc2cc(Oc3ccnc(-c4ncc(C(F)(F)F)[nH]4)c3)ccc21 [RAF265] + CC1(C)CCC(c2ccc(Cl)cc2)=C(CN2CCN(c3ccc(C(=O)NS(=O)(=O)c4ccc(N[C@H](CCN5CCOCC5)CSc5ccccc5)c(S(=O)(=O)C(F)(F)F)c4)cc3)CC2)C1 [Navitoclax] (partner 0.5 µM)
Summary of the method: as §1

RAF265 + AZD7762 = compound: Cn1c(Nc2ccc(C(F)(F)F)cc2)nc2cc(Oc3ccnc(-c4ncc(C(F)(F)F)[nH]4)c3)ccc21 [RAF265] + NC(=O)Nc1cc(-c2cccc(F)c2)sc1C(=O)N[C@H]1CCCNC1 [AZD7762] (partner 0.2 µM)
Summary of the method: as §1

| Cell Line | relative viability (IPA-3 + Alpelisib; first compound 0.2 µM) | relative viability (IPA-3 + Alpelisib; first compound 0.6325 µM) | relative viability (IPA-3 + Alpelisib; first compound 2 µM) | relative viability (IPA-3 + Alpelisib; first compound 6.325 µM) | relative viability (IPA-3 + Alpelisib; first compound 20 µM) | relative viability (Doramapimod + Tozasertib; first compound 0.02 µM) | relative viability (Doramapimod + Tozasertib; first compound 0.06325 µM) | relative viability (Doramapimod + Tozasertib; first compound 0.2 µM) | relative viability (Doramapimod + Tozasertib; first compound 0.6325 µM) | relative viability (Doramapimod + Tozasertib; first compound 2 µM) | relative viability (RAF265 + Navitoclax; first compound 0.01 µM) | relative viability (RAF265 + Navitoclax; first compound 0.03162 µM) | relative viability (RAF265 + Navitoclax; first compound 0.1 µM) | relative viability (RAF265 + Navitoclax; first compound 0.3162 µM) | relative viability (RAF265 + Navitoclax; first compound 1 µM) | relative viability (RAF265 + AZD7762; first compound 0.01 µM) | relative viability (RAF265 + AZD7762; first compound 0.03162 µM) | relative viability (RAF265 + AZD7762; first compound 0.1 µM) | relative viability (RAF265 + AZD7762; first compound 0.3162 µM) | relative viability (RAF265 + AZD7762; first compound 1 µM) |
| --- | --- | --- | --- | --- | --- | --- | --- | --- | --- | --- | --- | --- | --- | --- | --- | --- | --- | --- | --- | --- |
| PC-3 [JPC-3] | 1.04 | 1.05 | 1.04 | 0.972 | 1.08 | 0.914 | 0.961 | 0.938 | 1.03 | 0.92 | 0.735 | 0.754 | 0.893 | 0.304 | 0.556 | 0.879 | 0.771 | 0.742 | 0.445 | 0.479 |
| NCI-H1792 | 0.729 | 0.668 | 0.703 | 0.646 | 0.794 |  |  |  |  |  | 0.637 | 0.597 | 0.641 | 0.541 | 0.459 | 0.638 | 0.568 | 0.475 | 0.11 | 0.0984 |
| NCI-H596 | 0.527 | 0.562 | 0.475 | 0.523 | 0.558 | 0.939 | 0.862 | 1.11 | 0.982 | 0.883 | 1.02 | 0.862 | 1.03 | 1.06 | 0.576 | 1.29 | 1.08 | 1.03 | 0.877 | 0.548 |
| COR-L 105 | 0.998 | 0.964 | 1.17 | 0.859 | 1.11 | 0.409 | 0.342 | 0.376 | 0.35 | 0.365 | 0.853 | 0.878 | 0.668 | 0.685 | 0.339 |  |  |  |  |  |
| NCI-H2023 | 0.737 | 0.636 | 0.575 | 0.628 | 0.768 | 0.333 | 0.352 | 0.3 | 0.304 | 0.247 | 1.09 | 1.02 | 1.06 | 1.09 | 0.908 |  |  |  |  |  |
| EBC-1 | 0.992 | 0.73 | 0.821 | 0.811 | 0.475 |  |  |  |  |  | 0.398 | 0.366 | 0.332 | 0.283 | 0.312 |  |  |  |  |  |
| ABC-1 | 1.23 | 1.11 |  | 0.881 | 1.07 | 0.235 | 0.228 | 0.183 | 0.189 | 0.123 |  |  |  |  |  | 0.993 | 0.771 | 0.798 | 1.06 | 0.47 |
| NCI-H520 | 1.08 | 0.949 | 0.784 | 0.847 | 0.753 | 0.483 | 0.441 | 0.402 | 0.42 | 0.382 | 1.04 | 0.888 | 1.07 | 0.848 | 0.706 |  |  |  |  |  |
| NCI-H1650 |  |  |  |  |  | 0.416 | 0.408 | 0.395 | 0.382 | 0.357 | 1.17 | 1.18 | 1.53 | 1.19 | 1.22 |  |  |  |  |  |
| SK-MES-1 | 1.17 | 0.88 | 0.868 |  | 0.951 | 0.94 | 0.869 | 0.81 | 0.856 | 0.781 | 1.11 | 1.01 | 1.01 | 0.361 | 0.209 |  |  |  |  |  |
| NCI-H1563 | 0.987 | 0.982 | 1.06 | 0.949 | 1.07 |  |  |  |  |  |  |  |  |  |  |  |  |  |  |  |
| SW 900 |  |  |  |  |  | 0.538 | 0.584 | 0.618 | 0.479 | 0.481 |  |  |  |  |  | 0.709 | 0.483 | 0.671 | 0.466 | 0.348 |
| NCI-H1299 | 1.07 | 1.07 | 1.02 | 1.07 | 1.06 |  |  |  |  |  | 1.03 | 0.988 | 1.06 | 0.989 | 0.738 |  |  |  |  |  |
| A549 | 0.926 | 0.705 | 0.838 | 0.753 | 0.745 |  |  |  |  |  | 1.31 | 1.19 | 1.06 | 0.669 | 0.624 |  |  |  |  |  |
| NCI-H1623 |  |  |  |  |  | 0.424 | 0.426 | 0.411 | 0.46 | 0.318 |  |  |  |  |  |  |  |  |  |  |
| NCI-H1703 | 0.362 | 0.289 | 0.304 | 0.301 | 0.397 |  |  |  |  |  | 1.16 | 0.95 | 0.848 | 0.576 | 0.283 | 0.132 | 0.133 | 0.126 | 0.142 | 0.099 |
| NCI-H661 | 0.693 | 0.682 | 0.801 | 0.765 | 1.07 | 0.36 | 0.353 | 0.342 | 0.366 | 0.346 |  |  |  |  |  |  |  |  |  |  |
| NCI-H2009 | 1.22 | 1.18 | 1.24 | 1.16 | 1.14 | 0.727 | 0.799 | 0.696 | 0.663 | 0.556 | 1.19 | 1.15 | 1.16 | 1.13 | 0.858 |  |  |  |  |  |
| NCI-H2342 |  |  |  |  |  | 0.494 | 0.508 | 0.554 | 0.584 | 0.621 |  |  |  |  |  | 0.507 | 0.558 | 0.539 | 0.498 | 0.474 |
| Calu-6 | 1.08 | 1.01 | 1.01 | 0.928 | 0.924 |  |  |  |  |  | 0.753 | 0.588 | 0.569 | 0.304 | 0.221 |  |  |  |  |  |
| ChaGo-K-1 |  |  |  |  |  | 0.225 | 0.227 | 0.229 | 0.215 | 0.217 | 1.1 | 1 | 1.03 | 1.04 | 0.823 | 0.708 | 0.877 | 0.812 | 0.767 | 0.709 |
| COR-L23 | 0.872 | 0.769 | 0.861 | 0.589 | 0.587 | 0.268 | 0.22 | 0.173 | 0.178 | 0.176 | 0.976 | 0.957 | 0.918 | 0.512 | 0.514 |  |  |  |  |  |
| LCLC-103H | 0.926 | 0.806 | 0.81 | 0.943 | 1.02 | 0.431 | 0.529 | 0.388 | 0.544 | 0.432 |  |  |  |  |  | 0.815 | 0.911 | 0.767 | 0.727 | 0.598 |
| SW 1573 | 0.891 | 0.777 | 0.8 | 0.726 | 0.988 | 0.267 | 0.208 | 0.198 | 0.22 | 0.157 | 1.23 | 0.984 | 1.04 | 0.89 | 0.389 |  |  |  |  |  |
